What all share (format): functional
For test [1], the system named is Cucumis sativus. Description: Inhibition of Cucumis sativus (cucumber) growth assessed as stem length of first leaf of seedlings measured as growth rate at 125 ug/ml for 24 hr relative to control. The arrangement: scale not given: the % may be the effect or the level left.
Test [2] has as its system Triticum aestivum. Nature of the test: Inhibition of Triticum aestivum (wheat) Nourin 64 growth assessed as first leaf sheath length of seedlings measured as growth rate at 125 ug/ml for 24 hr relative to control. The arrangement: scale not given: the % may be the effect or the level left.
The test system of test [3] is Rhizoctonia solani. Description: Antifungal activity against Rhizoctonia solani on potato sucrose agar medium at 28 or 20 degC for 2 or 3 days.
Test [4] deals with Sclerotinia sclerotiorum. Description: Antifungal activity against Sclerotinia sclerotiorum on potato sucrose agar medium at 28 or 20 degC for 2 or 3 days.
In test [5] the test system is Pyricularia oryzae. Description: Antifungal activity against Magnaporthe oryzae on potato sucrose agar medium at 28 or 20 degC for 2 or 3 days.
Test [6] has as its system Colletotrichum gloeosporioides. Description: Antifungal activity against Glomerella cingulata on potato sucrose agar medium at 28 or 20 degC for 2 or 3 days.
The test system of test [7] is Monilinia fructicola. Description: Antifungal activity against Monilinia fructicola on potato sucrose agar medium at 28 or 20 degC for 2 or 3 days.
The subject of test [8] is Fusarium fujikuroi. Description: Antifungal activity against Fusarium fujikuroi on potato sucrose agar medium at 28 or 20 degC for 2 or 3 days.
Test [9] deals with Fusarium oxysporum f. sp. cucumerinum. Description: Antifungal activity against Fusarium oxysporum f. sp. cucumerinum on potato sucrose agar medium at 28 or 20 degC for 2 or 3 days.
The subject of test [10] is Alternaria mali. Nature of the test: Antifungal activity against Alternaria mali on potato sucrose agar medium at 28 or 20 degC for 2 or 3 days.
Test [11] has as its system Botrytis cinerea. Description: Antifungal activity against Botryotinia fuckeliana on potato sucrose agar medium at 28 or 20 degC for 2 or 3 days.
Test [12] has as its system Cercospora beticola. Nature of the test: Antifungal activity against Cercospora beticola on potato sucrose agar medium at 28 or 20 degC for 2 or 3 days.
Test [13] deals with Bipolaris oryzae. Description: Antifungal activity against Bipolaris oryzae on potato sucrose agar medium at 28 or 20 degC for 2 or 3 days.
Test [14] deals with Colletotrichum lagenaria. Nature of the test: Antifungal activity against Colletotrichum lagenaria on potato sucrose agar medium at 28 or 20 degC for 2 or 3 days.

≈ marks a conversion by molar mass, not a printed value.

Take `C[C@@H]1CC[C@H](Cc2ccc(Cl)cc2)[C@@]1(O)Cn1cncn1`: the Activity is on record as 43% in [1] and 38% in [2]. The minimal inhibitory concentration (MIC) was greater than 100 µg/mL in test [3]; 3.1 µg/mL (≈ 10.1 µM) in [4]; 3.1 µg/mL (≈ 10.1 µM) in [5]; 13 µg/mL (≈ 42.5 µM) in test [6]; less than 0.2 µg/mL in [7]; 3.1 µg/mL (≈ 10.1 µM) in test [8]. Besides, the minimum inhibitory concentration (MIC) was greater than 100 µg/mL in test [9]; greater than 100 µg/mL in [10]; 3.1 µg/mL (≈ 10.1 µM) in [11]; greater than 100 µg/mL in [12]; 25 µg/mL (≈ 81.8 µM) in test [13]; 100 µg/mL (≈ 327 µM) in [14].

Consider `CC(C)C[C@H]1CC[C@@H](Cc2ccc(Cl)cc2)[C@]1(O)Cn1cncn1`, for which the Activity in test [1] is recorded as 104%; in test [2], 115%. Moreover, the MIC was greater than 100 µg/mL in test [3]; greater than 100 µg/mL in [4]; 100 µg/mL (≈ 287 µM) in test [5]; greater than 100 µg/mL in test [6]; greater than 100 µg/mL in test [7]; greater than 100 µg/mL in [8]. For the same compound, the MIC in [9], in [10], in test [11], in [12], in [13] and in test [14] was greater than 100 µg/mL each time.

For the compound `CC[C@@H]1CC[C@H](Cc2ccc(Cl)cc2)[C@@]1(O)Cn1cncn1`, the Activity in test [1] was determined as 100%; in test [2], 104%. The MIC in test [3] is 100 µg/mL (≈ 313 µM); in test [4] it was 0.8 µg/mL (≈ 2.5 µM); in [5] it was 3.1 µg/mL (≈ 9.69 µM); in test [6] it was 0.4 µg/mL (≈ 1.25 µM); in [7], less than 0.2 µg/mL; in test [8] it was less than 0.2 µg/mL. In addition, the MIC in test [9] is 6.3 µg/mL (≈ 19.7 µM); in test [10] it was 25 µg/mL (≈ 78.2 µM); in test [11] it was 0.8 µg/mL (≈ 2.5 µM); in test [12], 50 µg/mL (≈ 156 µM); in test [13], 25 µg/mL (≈ 78.2 µM); in test [14] it was 1.6 µg/mL (≈ 5 µM).

As usually defined, the MIC is the lowest concentration found to suppress growth.

The values are drawn from ChEMBL document CHEMBL3045771, “Structure-Activity Relationships of Enantiomers of the Azole Fungicide Ipconazole and Its Related Compounds” (1998).
